What was measured:
[1] = target: CDK2/Cyclin E1 full length (Homo sapiens (Human), UniProt P24941); test: CDK2/Cyclin E1 Full Length ADP-Glo Kinase Assay; format: biochemical; conditions: 20 uM ATP, read-out: CDK2/ CyclinE1 IC50
Description: CDK2/Cyclin E1 Full Length ADP-Glo Kinase Assay
(§1) The purpose of CDK2/Cyclin E1 assay is to evaluate the inhibition (% inhibition and IC50 values) of small molecule inhibitors by using a Luminescent based ADP-Glo assay. CDK2/Cyclin E1 full length catalyzes the production of ADP from ATP. ADP-Glo assay monitors ADP producing biochemical reactions. ADP-Glo is performed in 2 steps upon completion of kinase reaction: a combined termination of kinase reaction and depletion of remaining ATP in the first step, and conversion of generated ADP to ATP and the newly produced ATP to light output using luciferase/luciferin reaction in the second step. The luminescent signal generated is proportional to the ADP concentration produced and is correlated with the kinase activity. CDK2/Cyclin E1 was purchased from Eurofins (Cat 14-475M). Typical reaction solutions (10 uL final reaction volume) contained 2% DMSO (f inhibitor), 10 mM MgCI2, 1 mM EGTA, 0.05% BSA, 2 mM DTT, 20 uM ATP (ATP Km=64.78 uM), 0.01% Brig-35, 0.75 uM substrate, and 0.328 nM wild-type full length CDK2/Cyclin E1 enzyme complex in 50 mM HEPES buffer at pH 7.5. The assay was initiated with the addition of ATP-containing substrate solution, following a 30-minute pre-incubation of enzyme and inhibitor at room temperature in the reaction mixture. The reaction was stopped after 90 minutes at room temperature by the addition of 10 uL of ADP-GLO Reagent. After a 90 minute incubation, 20 uL of Kinase Detection Reagent was added. Samples were incubated for 40 minutes, after which plate well luminescence was measured on a Envision microplate reader. The IC50 determinations were made from a plot of the fractional velocity as a function of inhibitor concentration fit to the 4 parameters IC50 equation.

MCF-7 cells = test: Cell Growth Inhibition, MCF-7 (CellTiterGlo, 6 days); format: cell-based; conditions: Homo sapiens, MCF7, 144 h; MCF-7, 6-day treatment, CellTiterGlo 2.0
Text: (§2) MCF-7 and OVCAR-3 cells were used to evaluate the anti-proliferation activity of the CDK inhibitors. MCF-7 (ATCC, HTB-22) cells are epithelial cells from a patient with ER+ metastatic adenocarcinoma. OVCAR-3 (ATCC, HTB-161) cells were derived from malignant ascites of a patient with ovarian cancer and are known to have CCNE1 amplification. Both cell lines were maintained in RPMI media supplemented with 10% fetal bovine serum. For cell growth inhibition assay, CDK inhibitors in DMSO solution were dispensed with either Echo 655 (Beckman Coulter) or Tecan D300e (HP) into 384-well plates (Corning #3765) and the 384-well plates were UV-sterilized prior to the assay. The inhibitors were typically tested in the 10-10,000 nM concentration range with half-log serial dilutions. MCF-7 or OVCAR-3 (500 cells/30 μL/well) were added to each well using Multidrop Combi (ThermoFisher) using standard cassettes. The assay plates with cells were cultured at 37° C., 5% CO2 for 6 days. At the end of the 6-day treatment, 30 μL of CellTiterGlo 2.0 (Promega) was added to each well and the luminescent signal was read using CLARIOstar plus (BMG). The percentage of cell growth inhibition (% CGI) was calculated using the following formula % CGI=100−100×luminescencesample/luminescencecontrol. The half maximal inhibitory concentration (IC50) was determined by nonlinear curve fitting (four parameters, variable slope).

CDK6/Cyclin D3 = CDK6/Cyclin D3 (Homo sapiens (Human), UniProt Q00534); test: CDK6/Cyclin D3 ADP-Glo Kinase Assay; format: biochemical; conditions: 100 uM ATP, read-out: CDK6/ CyclinD3 IC50
Description: CDK6/Cyclin D3 ADP-Glo Kinase Assay
as §1, with “of the CDK6/Cyclin D3” for “of CDK2/Cyclin E1”, “values) in the presence” for “values)”, “assay. CDK6/Cyclin D3” for “assay. CDK2/Cyclin E1 full length”, “activity. CDK6/Cyclin D3” for “activity. CDK2/Cyclin E1”, “from Carna. […]” for “from Eurofins (Cat 14-475M). Typical reaction solutions (10 uL final reaction volume) contained 2% DMSO (f inhibitor), 10 mM MgCI2, 1 mM EGTA, 0.05% BSA, 2 mM DTT, 20 uM ATP (ATP Km=64.78 uM), 0.01% Brig-35, 0.75 uM substrate, and 0.328 nM wild-type full length CDK2/Cyclin E1 enzyme complex in 50 mM HEPES buffer at pH 7.5.”, “a 90-minute” for “a 90 minute”

CDK4/Cyclin D1 = CDK4/Cyclin D1 (Homo sapiens (Human), UniProt P11802); test: CDK4/Cyclin D1 CHEF Assay (AQT0258 peptide); format: biochemical; conditions: 200 uM ATP, read-out: CDK4/ CyclinD1 AQT IC50
Text: CDK4/Cyclin D1 CHEF Assay
The purpose of CDK4/Cyclin Dl assay is to evaluate the inhibition (% inhibition and IC50 values) of small molecule inhibitors by using a Chelation-Enhance Fluorescence (CHEF) assay. In a CHEF assay, phosphorylation of a peptide substrate results in proportional increase in fluorescence. CHEF kinase assay use peptide substrates containing a synthetic alpha-amino acid with a side chain bearing an 8-hydroxyquinoline derivative (sulfonamido-oxide, Sox). Upon phosphorylation of a nearby serine, threonine or tyrosine and in the presence of Mg(II), the spectral properties of the Sox residue are altered, emitting 485 nm wavelength light when excited with a 360 nm wavelength light source. CDK4/Cyclin D1 catalyzes the phosphoryl transfer to the SOX-labeled substrate peptide AQT0258 from Assayquant Technologies. Typical reaction solutions contained 2% DMSO (+/−inhibitor), 10 mM MgCl2, 1 mM DTT, 200 uM ATP (ATP Km=195.2 uM), 0.012% Brig-35, 10 uM AQT0258 peptide, 0.02% BSA, 1% Glycerol, 0.55 mM EGTA, 2.5 nM CDK4/Cyclin D1 in 54 mM HEPES buffer at pH 7.5. The reaction was initiated with the addition of substrate solution, following a 30-minute pre-incubation of enzyme and inhibitor at 22° C. in the reaction mix. Reactions were allowed to proceed for 3 hrs at 22° C., followed by fluorescence read of the reaction. The IC50 determinations were made from a plot of the fractional velocity as a function of inhibitor concentration fit to the 4 parameters IC50 equation.

CDK1/Cyclin B1 = CDK1/Cyclin B1 (Homo sapiens (Human), UniProt P06493); test: CDK1/Cyclin B1 ADP-Glo Kinase Assay; format: biochemical; conditions: 80 uM ATP
Description: CDK1/Cyclin B1 ADP-Glo Kinase Assay
The purpose of CDK1/Cyclin B1 assay is to evaluate the inhibition (% inhibition and IC50 values) of small molecule inhibitors by using a Luminescent based ADP-Glo assay. CDK1/Cyclin B1 catalyzes the production of ADP from ATP. ADP-Glo assay monitors ADP producing biochemical reactions. ADP-Glo is performed in 2 steps upon completion of kinase reaction: a combined termination of kinase reaction and depletion of remaining ATP in the first step, and conversion of generated ADP to ATP and the newly produced ATP to light output using luciferase/luciferin reaction in the second step. The luminescent signal generated is proportional to the ADP concentration produced and is correlated with the kinase activity. CDK1/Cyclin B1 was purchased from Carna (Cat 04-102). Typical reaction solutions (10 uL final reaction volume) contained 2% DMSO (f inhibitor), 10 mM MgCl2, 1 mM EGTA, 0.05% BSA, 2 mM DTT, 80 uM ATP (ATP Km=78.6 uM), 0.01% Brig-35, 0.75 uM substrate, and 4.917 nM CDK1/Cyclin Bl enzyme complex in 50 mM HEPES buffer at pH 7.5. The assay was initiated with the addition of ATP-containing substrate solution, following a 30-minute pre-incubation of enzyme and inhibitor at room temperature in the reaction mixture. The reaction was stopped after 90 minutes at room temperature by the addition of 10 uL of ADP-GLO Reagent. After a 90 minute incubation, 20 uL of Kinase Detection Reagent was added. Samples were incubated for 40 minutes, after which plate well luminescence was measured on a Envision microplate reader. The IC50 determinations were made from a plot of the fractional velocity as a function of inhibitor concentration fit to the 4 parameters IC50 equation.

OVCAR-3 cells = test: Cell Growth Inhibition, OVCAR-3 (CellTiterGlo, 6 days); format: cell-based; conditions: Homo sapiens, 144 h; OVCAR-3, 6-day treatment, CellTiterGlo 2.0
Text: as §2

CDK6/Cyclin D3, sequence (Q00534 whole entry): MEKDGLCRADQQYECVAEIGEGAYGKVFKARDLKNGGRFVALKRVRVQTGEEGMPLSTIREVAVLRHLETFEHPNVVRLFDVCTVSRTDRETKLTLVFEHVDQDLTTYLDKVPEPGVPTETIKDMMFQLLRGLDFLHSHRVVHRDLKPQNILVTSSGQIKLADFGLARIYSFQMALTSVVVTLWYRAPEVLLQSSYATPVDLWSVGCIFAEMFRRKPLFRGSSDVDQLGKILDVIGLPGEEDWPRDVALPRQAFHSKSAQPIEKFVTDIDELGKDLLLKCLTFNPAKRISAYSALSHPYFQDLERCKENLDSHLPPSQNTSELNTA
CDK6/Cyclin D3, sequence (P30281 whole entry partner): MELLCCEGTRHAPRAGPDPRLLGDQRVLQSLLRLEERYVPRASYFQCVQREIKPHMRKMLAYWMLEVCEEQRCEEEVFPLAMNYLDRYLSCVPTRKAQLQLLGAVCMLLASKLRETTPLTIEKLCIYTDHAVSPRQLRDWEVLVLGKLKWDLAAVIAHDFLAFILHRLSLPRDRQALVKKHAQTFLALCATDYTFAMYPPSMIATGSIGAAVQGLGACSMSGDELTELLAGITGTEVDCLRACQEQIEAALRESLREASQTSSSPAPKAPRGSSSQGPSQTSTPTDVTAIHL
CDK4/Cyclin D1, sequence (P11802 whole entry): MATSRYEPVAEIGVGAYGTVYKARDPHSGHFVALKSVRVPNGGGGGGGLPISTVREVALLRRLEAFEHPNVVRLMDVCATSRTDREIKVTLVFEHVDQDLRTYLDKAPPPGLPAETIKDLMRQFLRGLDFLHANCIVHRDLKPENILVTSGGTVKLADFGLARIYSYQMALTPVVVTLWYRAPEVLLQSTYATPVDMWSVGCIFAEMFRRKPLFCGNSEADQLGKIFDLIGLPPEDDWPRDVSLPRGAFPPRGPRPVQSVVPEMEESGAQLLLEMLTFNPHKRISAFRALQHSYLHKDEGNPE
CDK4/Cyclin D1, sequence (P24385 whole entry partner): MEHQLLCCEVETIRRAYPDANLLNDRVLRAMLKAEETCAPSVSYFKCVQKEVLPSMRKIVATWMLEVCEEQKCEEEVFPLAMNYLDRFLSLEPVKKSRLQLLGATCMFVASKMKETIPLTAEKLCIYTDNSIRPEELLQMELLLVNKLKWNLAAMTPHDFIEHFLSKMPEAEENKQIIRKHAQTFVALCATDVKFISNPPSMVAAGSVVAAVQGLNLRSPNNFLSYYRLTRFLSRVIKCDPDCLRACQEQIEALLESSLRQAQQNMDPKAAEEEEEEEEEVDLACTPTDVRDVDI
CDK1/Cyclin B1, sequence (P06493 whole entry): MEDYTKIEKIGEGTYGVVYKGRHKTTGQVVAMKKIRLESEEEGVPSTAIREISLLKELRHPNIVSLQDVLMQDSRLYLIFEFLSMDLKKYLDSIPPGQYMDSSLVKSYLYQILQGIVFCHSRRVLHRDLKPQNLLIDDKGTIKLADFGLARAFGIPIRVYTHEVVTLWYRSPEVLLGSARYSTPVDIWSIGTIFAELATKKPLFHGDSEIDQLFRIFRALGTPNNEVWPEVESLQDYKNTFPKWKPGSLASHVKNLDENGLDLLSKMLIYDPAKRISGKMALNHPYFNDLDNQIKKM
CDK1/Cyclin B1, sequence (P14635 whole entry partner): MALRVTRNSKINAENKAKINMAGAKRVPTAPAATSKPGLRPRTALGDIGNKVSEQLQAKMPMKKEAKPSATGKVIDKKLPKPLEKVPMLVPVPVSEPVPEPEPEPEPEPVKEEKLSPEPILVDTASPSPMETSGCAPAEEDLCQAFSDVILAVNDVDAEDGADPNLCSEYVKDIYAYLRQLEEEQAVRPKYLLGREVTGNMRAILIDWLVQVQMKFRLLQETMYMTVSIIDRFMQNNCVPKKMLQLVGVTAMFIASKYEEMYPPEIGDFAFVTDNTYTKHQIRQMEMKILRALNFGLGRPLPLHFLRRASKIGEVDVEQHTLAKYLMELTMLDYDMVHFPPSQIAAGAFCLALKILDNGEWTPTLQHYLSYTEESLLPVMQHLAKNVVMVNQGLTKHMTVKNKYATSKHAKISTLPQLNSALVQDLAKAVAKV

| Structure (SMILES) | IC50 [1] | IC50 (MCF-7 cells) | IC50 (CDK6/Cyclin D3) | IC50 (CDK4/Cyclin D1) | IC50 (CDK1/Cyclin B1) | IC50 (OVCAR-3 cells) |
| --- | --- | --- | --- | --- | --- | --- |
| O=S(=O)(N1CCC(Nc2ncc3cccc(N4CC5(CNCCC5(F)F)C4)c3n2)CC1)C1(C(F)F)CC1 [Example 105, 8-(9,9-difluoro-2,6-diazaspiro[3.5]nonan-2-yl)-N-(1-((1-(difluoromethyl)cyclopropyl)sulfonyl)piperidin-4-yl)quinazolin-2-amine] | < 200 nM | > 2000 nM | 200 to 500 nM | < 200 nM | 200 to 500 nM | > 2000 nM |
| O=S(=O)(C1CC1)N1CCC(Nc2ncc3cc(C(F)F)cc(N4CC5(CNCC5F)C4)c3n2)CC1 (stereo not shown) [Example 104, N-(1-(cyclopropylsulfonyl)piperidin-4-yl)-6-(difluoromethyl)-8-(8-fluoro-2,6-diazaspiro[3.4]octan-2-yl)quinazolin-2-amine] | < 200 nM | 200 to 500 nM | < 200 nM | < 200 nM | < 200 nM | 200 to 500 nM |
| O=S(=O)(CC1CCC1)N1CCC(Nc2ncc3cc(C(F)F)cc(N4CCC5(CNC5)C4)c3n2)CC1 [Example 84, N-(1-((cyclobutylmethyl)sulfonyl)piperidin-4-yl)-6-(difluoromethyl)-8-(2,6-diazaspiro[3.4]octan-6-yl)quinazolin-2-amine] | < 200 nM | 500 to 2000 nM | < 200 nM | < 200 nM | 200 to 500 nM | 500 to 2000 nM |
| CC(=O)N1CCC2(CCC(c3cccc4cnc(NC5CCN(S(C)(=O)=O)CC5)nc34)C2)C1 (stereo not shown) [Example 35] | < 200 nM | 500 to 2000 nM | < 200 nM | – | 200 to 500 nM | > 2000 nM |
| CS(=O)(=O)N1CCC(Nc2ncc3cccc(C4CC5(CNCC5(F)F)C4)c3n2)CC1 (stereo not shown) [Example 122, 8-(8,8-difluoro-6-azaspiro[3.4]octan-2-yl)-N-(1-(methylsulfonyl)piperidin-4-yl)quinazolin-2-amine] | < 200 nM | – | < 200 nM | < 200 nM | < 200 nM | – |
| COC1CC2(C1)CC(c1cccc3cnc(NC4CCN(S(C)(=O)=O)CC4)nc13)C2 (stereo not shown) [Example 107, 8-(6-methoxyspiro[3.3]heptan-2-yl)-N-(1-(methylsulfonyl)piperidin-4-yl)quinazolin-2-amine] | < 200 nM | – | < 200 nM | < 200 nM | 500 to 2000 nM | – |
| COC1CC2(C1)CC(c1cc(C(F)F)cc3cnc(NC4CCN(S(C)(=O)=O)CC4)nc13)C2 (stereo not shown) [Example 108, 6-(difluoromethyl)-8-(6-methoxyspiro[3.3]heptan-2-yl)-N-(1-(methylsulfonyl)piperidin-4-yl)quinazolin-2-amine] | < 200 nM | – | < 200 nM | < 200 nM | < 200 nM | – |
| CN1CC2(CC(c3cc(C(F)F)cc4cnc(NC5CCN(S(C)(=O)=O)CC5)nc34)C2)C1 [Example 67, 6-(difluoromethyl)-8-(2-methyl-2-azaspiro[3.3]heptan-6-yl)-N-(1-(methylsulfonyl)piperidin-4-yl)quinazolin-2-amine] | < 200 nM | < 200 nM | – | – | < 200 nM | < 200 nM |
| Cn1cc(S(=O)(=O)N2CCC(Nc3ncc4cccc(N5CC(O)(C(F)F)C5)c4n3)CC2)cn1 [Example 119, 3-(difluoromethyl)-1-(2-((1-((1-methyl-1H-pyrazol-4-yl)sulfonyl)piperidin-4-yl)amino)quinazolin-8-yl)azetidin-3-ol] | < 200 nM | – | < 200 nM | < 200 nM | < 200 nM | 500 to 2000 nM |
| CS(=O)(=O)N1CC[C@@H](Nc2ncc3cc(C(F)F)cc(N4CC(F)(F)C5(CNC5)C4)c3n2)[C@H](O)C1 (racemic) [Example 118, (3R,4R)-4-((8-(8,8-difluoro-2,6-diazaspiro[3.4]octan-6-yl)-6-(difluoromethyl)quinazolin-2-yl)amino)-1-(methylsulfonyl)piperidin-3-ol] | < 200 nM | – | < 200 nM | < 200 nM | 500 to 2000 nM | > 2000 nM |
